Measured values as given in article PMC11344421, “Polyphyllin I exerts anti-hepatocellular carcinoma activity by targeting ZBTB16 to activate the PPARγ/RXRα signaling pathway” (Chinese Medicine, 2024).

Biological target: T1, recombinant human (rh) ZBTB16 protein (Homo sapiens, UniProt Q05516)
T1 construct: recombinant human protein immobilised on sensor
T1 sequence (Q05516 1-673): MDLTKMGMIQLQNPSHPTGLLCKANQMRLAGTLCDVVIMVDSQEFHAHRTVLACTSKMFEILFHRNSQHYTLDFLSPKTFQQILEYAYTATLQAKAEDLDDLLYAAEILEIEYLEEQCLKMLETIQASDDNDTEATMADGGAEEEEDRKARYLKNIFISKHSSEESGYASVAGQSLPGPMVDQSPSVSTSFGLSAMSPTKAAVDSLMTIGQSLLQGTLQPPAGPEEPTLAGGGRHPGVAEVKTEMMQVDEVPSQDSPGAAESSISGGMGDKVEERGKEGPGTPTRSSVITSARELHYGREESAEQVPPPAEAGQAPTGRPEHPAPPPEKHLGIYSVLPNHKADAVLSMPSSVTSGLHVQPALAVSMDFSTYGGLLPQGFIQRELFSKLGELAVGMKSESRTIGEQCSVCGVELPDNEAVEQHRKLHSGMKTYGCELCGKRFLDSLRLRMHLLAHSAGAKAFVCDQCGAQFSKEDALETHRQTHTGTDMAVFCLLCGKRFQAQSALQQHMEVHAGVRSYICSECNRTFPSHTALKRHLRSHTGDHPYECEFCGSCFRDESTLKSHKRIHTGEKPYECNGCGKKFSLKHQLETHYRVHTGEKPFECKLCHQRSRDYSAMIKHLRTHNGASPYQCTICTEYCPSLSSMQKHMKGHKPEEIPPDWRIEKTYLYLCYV
Assay: surface plasmon resonance (OpenSPR, ZBTB16 immobilised by EDC/NHS)
Type: binding

SMILES: C[C@@H]1CC[C@@]2(OC1)O[C@H]1C[C@H]3[C@@H]4CC=C5C[C@@H](O[C@@H]6O[C@H](CO)[C@@H](O[C@@H]7O[C@@H](CO)[C@H](O)[C@H]7O)[C@H](O)[C@H]6O[C@@H]6O[C@@H](C)[C@H](O)[C@@H](O)[C@H]6O)CC[C@]5(C)[C@H]4CC[C@]3(C)[C@H]1[C@@H]2C [Polyphyllin I]
- Kd: 5.5 µM
